Experimental data as given in patent US9255100B2 (BAYER INTELLECTUAL PROPERTY GMBH, priority 2010, dated 2016).

biological target: T1, N-terminally GST-tagged human full length recombinant Mps-1 kinase (Homo sapiens, UniProt P33981); experiment: Mps-1 kinase assay (TR-FRET); type: biochemical; conditions: Mps1 IC50 [nM], 10 μM ATP, 1 μM peptide substrate, 60 min at 22° C.
T1 construct: N-terminally GST-tagged human full length recombinant Mps-1 kinase; purchased Invitrogen, Karslruhe, Germany PV4071
T1 sequence (P33981 1-857): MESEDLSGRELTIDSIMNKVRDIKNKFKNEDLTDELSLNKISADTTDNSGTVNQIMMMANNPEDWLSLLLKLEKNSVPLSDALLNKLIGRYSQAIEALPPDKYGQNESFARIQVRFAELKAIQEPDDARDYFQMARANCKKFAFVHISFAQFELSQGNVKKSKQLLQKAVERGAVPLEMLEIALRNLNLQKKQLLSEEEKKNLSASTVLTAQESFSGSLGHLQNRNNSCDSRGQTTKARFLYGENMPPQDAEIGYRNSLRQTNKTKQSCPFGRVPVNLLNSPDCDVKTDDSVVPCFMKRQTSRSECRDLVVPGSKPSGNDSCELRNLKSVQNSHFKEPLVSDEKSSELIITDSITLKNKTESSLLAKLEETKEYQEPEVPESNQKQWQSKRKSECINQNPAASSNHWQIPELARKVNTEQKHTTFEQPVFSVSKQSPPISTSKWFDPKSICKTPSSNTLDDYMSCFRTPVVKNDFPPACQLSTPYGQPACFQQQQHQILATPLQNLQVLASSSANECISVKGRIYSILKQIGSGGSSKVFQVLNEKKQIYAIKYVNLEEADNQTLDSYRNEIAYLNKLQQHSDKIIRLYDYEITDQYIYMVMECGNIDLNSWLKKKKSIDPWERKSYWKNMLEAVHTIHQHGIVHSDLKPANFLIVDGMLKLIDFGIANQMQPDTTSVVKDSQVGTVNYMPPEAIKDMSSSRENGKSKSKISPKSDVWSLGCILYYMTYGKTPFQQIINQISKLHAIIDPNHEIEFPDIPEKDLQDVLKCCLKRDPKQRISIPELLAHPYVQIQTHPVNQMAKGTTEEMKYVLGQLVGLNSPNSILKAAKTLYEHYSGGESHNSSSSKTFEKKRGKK
How it was run: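 GST-tagged full-length recombinant Mps-1 at about 1 nM final, adjusted per lot for linear range, phosphorylated a biotinylated peptide. Product bound Eu-anti-phospho(Ser/Thr) antibody over 1 h at 22° C and was read by TR-FRET to streptavidin-XLent. Compounds scored for kinase inhibition.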

SMILES | IC50 [nM]
Cc1cc(-c2cnc3c(NCCN4CCN(C)CC4)cc(Oc4cccc(F)c4)nn23)ccc1C(=O)NC1CC1 [Example 501, N-cyclopropyl-4-[6-(3-fluoro-phenoxy)-8-{[2-(4-methyl-piperazin-1-yl)ethyl]amino}imidazo[1,2-b]pyridazin-3-yl]-2-methylbenzamide] | 0.1
Cc1cc(-c2cnc3c(NCCN4CCCC4)cc(Oc4cccc(F)c4)nn23)ccc1C(=O)NC1CC1 [Example 502, N-cyclopropyl-4-[6-(3-fluoro-phenoxy)-8-{[2-(pyrrolidin-1-yl)ethyl]amino}imidazo[1,2-b]pyridazin-3-yl]-2-methyl-benzamide] | 0.2
CNC(=O)N(C)CCCNc1cc(Oc2cccc(F)c2)nn2c(-c3ccc(C(=O)NC4CC4)c(C)c3)cnc12 [Example 503, N-cyclopropyl-4-[6-(3-fluoro-phenoxy)-8-({3-[methyl(methyl-carbamoyl)amino]propyl}amino)imidazo[1,2-b]pyridazin-3-yl]-2-methylbenzamide] | 0.2
Cc1cc(-c2cnc3c(NCCCN4CCCCC4)cc(Oc4cccc(F)c4)nn23)ccc1C(=O)NC1CC1 [Example 505, N-cyclopropyl-4-[6-(3-fluoro-phenoxy)-8-{[3-(piperidin-1-yl)propyl]amino}imidazo[1,2-b]pyridazin-3-yl]-2-methyl-benzamide] | 0.2
Cc1cc(-c2cnc3c(NCCCN4CCOCC4)cc(Oc4cccc(F)c4)nn23)ccc1C(=O)NC1CC1 [Example 506, N-cyclopropyl-4-[6-(3-fluoro-phenoxy)-8-{[3-(morpholin-4-yl)propyl]amino}imidazo[1,2-b]pyridazin-3-yl]-2-methyl-benzamide] | 0.1
Cc1cc(-c2cnc3c(NCCCS(C)(=O)=O)cc(Oc4cccc(F)c4)nn23)ccc1C(=O)NC1CC1 [Example 508, N-cyclopropyl-4-[6-(3-fluoro-phenoxy)-8-{[3-(methylsulfonyl)propyl]amino}imidazo[1,2-b]pyridazin-3-yl]-2-methyl-benzamide] | 0.2
Cc1cc(-c2cnc3c(NCCc4nnn[nH]4)cc(Oc4cccc(F)c4)nn23)ccc1C(=O)NC1CC1 [Example 511, N-cyclopropyl-4-[6-(3-fluoro-phenoxy)-8-{[2-(1H-tetrazol-5-yl)ethyl]amino}imidazo[1,2-b]pyridazin-3-yl]-2-methyl-benzamide] | 0.3
Cc1cc(-c2cnc3c(NCC(F)(F)F)cc(Oc4cccc(F)c4)nn23)ccc1C(=O)NC1CC1 [Example 514, N-cyclopropyl-4-{6-(3-fluoro-phenoxy)-8-[(2,2,2-trifluoroethyl)amino]imidazo[1,2-b]pyridazin-3-yl}-2-methylbenzamide] | 8
Cc1cc(-c2cnc3c(NCCn4cccn4)cc(Oc4cccc(F)c4)nn23)ccc1C(=O)NC1CC1 [Example 515, N-cyclopropyl-4-[6-(3-fluoro-phenoxy)-8-{[2-(1H-pyrazol-1-yl)ethyl]amino}imidazo[1,2-b]pyridazin-3-yl]-2-methyl-benzamide] | 0.4
COc1ccc(Oc2cc(NCCS(C)(=O)=O)c3ncc(-c4ccc(C(=O)NC5CC5)c(C)c4)n3n2)c(F)c1 [Example 519, N-cyclopropyl-4-[6-(2-fluoro-4-methoxyphenoxy)-8-{[2-(methylsulfonyl)ethyl]amino]imidazo [1,2-b]pyridazin-3-yl]-2-methylbenzamide] | 0.1
Cc1cc(-c2cnc3c(NCC(C)(C)N)cc(Oc4ccc(F)c(F)c4)nn23)ccc1C(=O)NC1CC1 [Example 520, 4-{8-[(2-amino-2-methylpropyl)amino]-6-(3,4-difluorophenoxy)imidazo[1,2-b]pyridazin-3-yl}-N-cyclopropyl-2-methylbenzamide] | 0.2
Cc1cc(-c2cnc3c(NCC(C)(C)N)cc(Oc4ccc(Cl)cc4)nn23)ccc1C(=O)NC1CC1 [Example 521, 4-{8-[(2-amino-2-methyl-propyl)amino]-6-(4-chloro-phenoxy)imidazo[1,2-b]pyridazin-3-yl}-N-cyclopropyl-2-methylbenzamide] | 0.3
Cc1cc(-c2cnc3c(NCCN(C)C)cc(Oc4ccc(Cl)cc4)nn23)ccc1C(=O)NC1CC1 [Example 523, 4-[6-(4-chlorophenoxy)-8-{[2-(dimethylamino)ethyl]amino}imidazo[1,2-b]pyridazin-3-yl]-N-cyclopropyl-2-methylbenzamide] | 0.7
Cc1cc(-c2cnc3c(NCCN(C)C)cc(Oc4cccnc4)nn23)ccc1C(=O)NC1CC1 [Example 524, N-cyclopropyl-4-[8-{[2-(dimethylamino)ethyl]amino}-6-(pyridin-3-yloxy)imidazo [1,2-b]pyridazin-3-yl]-2-methylbenzamide] | 2.3
Cc1cc(-c2cnc3c(NCCN(C)C)cc(Oc4ccc(F)c(F)c4)nn23)ccc1C(=O)NC1CC1 [Example 525, N-cyclopropyl-4-[6-(3,4-difluorophenoxy)-8-{[2-(dimethylamino)ethyl]amino}imidazo[1,2-b]pyridazin-3-yl]-2-methylbenzamide] | 0.7
CNc1cc(Oc2cccc(F)c2F)nn2c(-c3ccc(C(=O)NC4CC4)c(C)c3)cnc12 [Example 528, N-cyclopropyl-4-[6-(2,3-difluorophenoxy)-8-(methylamino)imidazo[1,2-b]pyridazin-3-yl]-2-methylbenzamide] | 0.7

Further compounds by falling IC50, results first:

IC50 [nM] | SMILES
1.8 | Cc1cc(-c2cnc3c(NCC(C)(C)N)cc(Oc4cccnc4)nn23)ccc1C(=O)NC1CC1 [Example 522, 4-{8-[(2-amino-2-methyl-propyl)amino]-6-(pyridin-3-yloxy)imidazo[1,2-b]pyridazin-3-yl}-N-cyclopropyl-2-methylbenzamide]
0.6 | Cc1cc(-c2cnc3c(NCC4CCN(C)CC4)cc(Oc4cccnc4)nn23)ccc1C(=O)NC1CC1 [Example 527, N-cyclopropyl-2-methyl-4-[8-{[(1-methylpiperidin-4-yl)methyl]amino}-6-(pyridin-3-yloxy)imidazo [1,2-b]pyridazin-3-yl]benzamide]
0.2 | Cc1cc(-c2cnc3c(NCCN4CCCCC4)cc(Oc4cccc(F)c4)nn23)ccc1C(=O)NC1CC1 [Example 499, N-cyclopropyl-4-[6-(3-fluoro-phenoxy)-8-{[2-(piperidin-1-yl)ethyl]amino}imidazo[1,2-b]pyridazin-3-yl]-2-methyl-benzamide]
0.2 | CC(=O)NCCNc1cc(Oc2cccc(F)c2)nn2c(-c3ccc(C(=O)NC4CC4)c(C)c3)cnc12 [Example 504, 4-[8-{[2-(acetylamino)ethyl]amino}-6-(3-fluorophenoxy)imidazo[1,2-b]pyridazin-3-yl]-N-cyclopropyl-2-methyl-benzamide]
0.2 | Cc1cc(-c2cnc3c(NCCCN4CCCC4)cc(Oc4cccc(F)c4)nn23)ccc1C(=O)NC1CC1 [Example 507, N-cyclopropyl-4-[6-(3-fluoro-phenoxy)-8-{[3-(pyrrolidin-1-yl)propyl]amino}imidazo[1,2-b]pyridazin-3-yl]-2-methyl-benzamide]
0.2 | Cc1cc(-c2cnc3c(NCCCCN(C)C)cc(Oc4cccc(F)c4)nn23)ccc1C(=O)NC1CC1 [Example 513, N-cyclopropyl-4-[8-{[4-(dimethyl-amino)butyl]amino}-6-(3-fluoro-phenoxy)imidazo[1,2-b]pyridazin-3-yl]-2-methylbenzamide]
0.2 | Cc1ccc(F)cc1Oc1cc(NCCS(C)(=O)=O)c2ncc(-c3ccc(C(=O)NC4CC4)c(C)c3)n2n1 [Example 517, N-cyclopropyl-4-[6-(5-fluoro-2-methylphenoxy)-8-{[2-(methylsulfonyl)ethyl]amino}imidazo [1,2-b]pyridazin-3-yl]-2-methylbenzamide]
0.1 | CC(=O)NCCCNc1cc(Oc2cccc(F)c2)nn2c(-c3ccc(C(=O)NC4CC4)c(C)c3)cnc12 [Example 509, 4-[8-{[3-(acetylamino)propyl]amino}-6-(3-fluorophenoxy)imidazo[1,2-b]pyridazin-3-yl]-N-cyclopropyl-2-methyl-benzamide]
0.1 | Cc1cc(-c2cnc3c(NCC(F)F)cc(Oc4cccc(F)c4)nn23)ccc1C(=O)NC1CC1 [Example 512, N-cyclopropyl-4-{8-[(2,2-difluoro-ethyl)amino]-6-(3-fluoro-phenoxy)imidazo[1,2-b]pyridazin-3-yl}-2-methylbenzamide]
0.1 | COc1ccc(Oc2cc(NCCS(C)(=O)=O)c3ncc(-c4ccc(C(=O)NC5CC5)c(C)c4)n3n2)cc1F [Example 518, N-cyclopropyl-4-[6-(3-fluoro-4-methoxyphenoxy)-8-{[2-(methylsulfonyl)ethyl]amino}imidazo [1,2-b]pyridazin-3-yl]-2-methylbenzamide]
